Measurements: patent US10111819B2 (The Procter & Gamble Company, priority 2015, dated 2018)

Experiments:
[1] = molecular target: T1, human TRPV1 receptor (Homo sapiens, UniProt Q8NER1, M315I/T336M); experiment: FLIPR calcium flux, antagonists to CPC activation of TRPV1; format: cell-based; details: for Ca count CPC TRPV1 Receptor Antagonist / % inhibition of CPC activation: compound 1 mM (0.04% for extracts); for Ca count CPC TRPV1 Receptor Antagonist: 30 min preincubation, then CPC 100 uM; for inhibition at 1000 µM: read-out: % inhibition of CPC activation; for % inhibition of CPC activation: TRPV1, CPC 100 uM
T1 construct: expressed in transfected cells; host or cells: HEK-293
T1 sequence (Q8NER1 whole entry M315I/T336M): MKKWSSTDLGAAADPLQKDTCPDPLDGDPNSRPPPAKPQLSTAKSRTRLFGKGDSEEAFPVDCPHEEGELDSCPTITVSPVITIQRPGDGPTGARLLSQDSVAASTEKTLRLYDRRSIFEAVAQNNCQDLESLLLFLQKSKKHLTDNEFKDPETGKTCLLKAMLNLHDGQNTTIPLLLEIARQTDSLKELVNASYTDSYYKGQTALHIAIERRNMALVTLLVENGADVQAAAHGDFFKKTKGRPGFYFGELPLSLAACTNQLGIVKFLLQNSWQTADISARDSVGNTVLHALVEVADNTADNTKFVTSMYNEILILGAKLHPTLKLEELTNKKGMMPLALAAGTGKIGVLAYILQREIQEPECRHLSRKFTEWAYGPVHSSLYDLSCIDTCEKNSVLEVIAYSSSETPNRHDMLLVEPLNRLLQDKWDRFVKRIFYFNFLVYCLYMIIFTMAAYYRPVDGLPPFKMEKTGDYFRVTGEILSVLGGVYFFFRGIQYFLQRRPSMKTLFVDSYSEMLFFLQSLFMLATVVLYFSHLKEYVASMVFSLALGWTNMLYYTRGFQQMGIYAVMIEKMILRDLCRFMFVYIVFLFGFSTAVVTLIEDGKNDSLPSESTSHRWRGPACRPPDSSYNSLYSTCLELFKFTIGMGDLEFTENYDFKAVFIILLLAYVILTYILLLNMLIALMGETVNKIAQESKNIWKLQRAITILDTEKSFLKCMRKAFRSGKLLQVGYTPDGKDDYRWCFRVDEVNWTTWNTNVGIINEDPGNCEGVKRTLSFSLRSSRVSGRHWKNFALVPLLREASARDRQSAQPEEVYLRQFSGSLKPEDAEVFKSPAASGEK
Method: HEK-293 (human embryonic kidney) cells stably transfected with human TRPV1 receptor (SEQ ID NO. 1) were grown in 15 ml growth medium [high glucose DMEM (Dulbecco's Modification of Eagle's Medium) supplemented with 10% FBS (fetal bovine serum)], 100 μg/ml Penicillin/streptomycin, 100 μg/ml G418] in a 75 Cm^2 flask for 3 days at 33° C. in a mammalian cell culture incubator set at 5% CO2. Cells were detached with addition of 10 ml of PBS (phosphate buffered saline) by hand shaking gently. Cells were transferred to a 50 ml tube and centrifuged at 850 rpm for 3 minutes to remove PBS. After centrifugation, a pellet of cells is formed in the bottom of the tube separating them from the supernatant solution. The supernatant was discarded and the cell pellet is suspended in 1 ml of fresh growth medium to which 5 μl (12.5 μg) of Fluo-4 AM (Molecular Probes, Inc.) calcium indicator was added and incubated for 30 min with gentle shaking. Fluo-4 AM is a fluorescent dye used for quantifying cellular Ca^2+ concentrations in the 100 nM to […] range. At the end of the 30 minutes, 45 ml of assay buffer [1×HBSS (Hank's Balanced Salt Solution), 20 mM HEPES (4-(2-Hydroxyethyl)-1-piperazineethanesulfonic acid)] was added to wash cells and the resulting combination is then centrifuged at 850 rpm for 3 minutes to remove excess buffer and Fluo-4 AM calcium indicator; following centrifugation the assay buffer was removed. The pelleted cells were re-suspended in 10 ml assay buffer and 90 μl aliquots (˜50,000 cells) per well delivered to a 96-well assay plate containing compounds (final concentration 1 mM for pure compounds, 0.04% for extracts) or buffer control and incubated at room temperature for 30 minutes. After 30 minutes, the plate was placed into a fluorometric imaging plate reader (FLIPR^TETRA from Molecular Devices) and basal fluorescence recorded (excitation wave length 488 nm and emission wave length 510 nm). The FLIPR assay is an accepted method for detecting changes in intracellular calcium concentration. […] For determining the direct effect of test compounds on TRPV1 receptor, fluorescence was measured immediately after addition of each compound.

[2] = concentration level where the cooling effect can be clearly recognized; cited from earlier work
[3] = molecular target: T2, human TRPA1 receptor (Homo sapiens, UniProt O75762, K186N/R3C/R58T); experiment: FLIPR calcium flux, antagonists to CPC activation of TRPA1; format: cell-based; details: for % inhibition of CPC activation: TRPA1, CPC 100 uM; for % inhibition of CPC activation / Ca count CPC TRPA1 Receptor Antagonist: compound 1 mM (0.04% for extracts); for Ca count CPC TRPA1 Receptor Antagonist: 30 min preincubation, then CPC 100 uM; for inhibition at 1000 µM: read-out: % inhibition of CPC activation
T2 construct: expressed in transfected cells; host or cells: HEK-293
T2 sequence (O75762 whole entry R3C/R58T/K186N): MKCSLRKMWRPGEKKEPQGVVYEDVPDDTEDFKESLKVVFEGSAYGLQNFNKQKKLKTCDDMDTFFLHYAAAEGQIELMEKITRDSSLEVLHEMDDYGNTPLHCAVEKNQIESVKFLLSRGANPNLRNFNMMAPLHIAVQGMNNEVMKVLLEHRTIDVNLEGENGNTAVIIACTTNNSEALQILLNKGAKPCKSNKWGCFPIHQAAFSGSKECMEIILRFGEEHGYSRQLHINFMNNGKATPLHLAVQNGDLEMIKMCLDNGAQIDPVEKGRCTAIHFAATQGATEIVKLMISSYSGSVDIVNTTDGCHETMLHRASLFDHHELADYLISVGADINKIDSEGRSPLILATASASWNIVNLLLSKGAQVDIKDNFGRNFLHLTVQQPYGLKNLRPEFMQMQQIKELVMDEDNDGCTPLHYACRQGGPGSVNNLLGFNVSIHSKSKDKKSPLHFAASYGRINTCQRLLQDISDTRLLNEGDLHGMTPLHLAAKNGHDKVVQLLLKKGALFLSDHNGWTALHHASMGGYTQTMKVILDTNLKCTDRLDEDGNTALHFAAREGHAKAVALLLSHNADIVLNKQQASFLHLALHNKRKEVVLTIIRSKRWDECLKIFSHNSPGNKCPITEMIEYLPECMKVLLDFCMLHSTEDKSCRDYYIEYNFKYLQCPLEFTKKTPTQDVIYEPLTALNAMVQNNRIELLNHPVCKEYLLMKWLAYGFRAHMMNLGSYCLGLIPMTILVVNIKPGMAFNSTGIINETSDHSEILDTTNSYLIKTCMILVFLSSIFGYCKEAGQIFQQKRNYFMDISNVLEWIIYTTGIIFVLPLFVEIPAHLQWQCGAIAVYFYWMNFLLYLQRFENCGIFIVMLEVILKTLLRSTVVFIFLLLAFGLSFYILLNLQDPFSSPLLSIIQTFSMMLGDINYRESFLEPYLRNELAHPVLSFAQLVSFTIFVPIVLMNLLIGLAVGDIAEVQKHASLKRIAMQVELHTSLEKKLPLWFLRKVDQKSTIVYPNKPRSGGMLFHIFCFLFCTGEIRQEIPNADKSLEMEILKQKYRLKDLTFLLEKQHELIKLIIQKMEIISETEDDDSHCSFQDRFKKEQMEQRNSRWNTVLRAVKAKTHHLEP
Method: HEK-293 (human embryonic kidney) cells stably transfected with human TRPA1 receptor (SEQ ID NO. 2) were grown in 15 ml growth medium [high glucose DMEM (Dulbecco's Modification of Eagle's Medium) supplemented with 10% FBS (fetal bovine serum)], 100 μg/ml Penicillin/streptomycin, 100 μg/ml G418] in a 75 Cm^2 flask for 3 days at 37° C. in a mammalian cell culture incubator set at 5% CO2. Cells were detached with addition of 10 ml of PBS (phosphate buffered saline) by gentle hand shaking. Cells were transferred to a 50 ml tube and centrifuged at 850 rpm for 3 minutes to remove PBS. After centrifugation, a pellet of cells was formed in the bottom of the tube separating them from the supernatant solution. The supernatant was discarded and the cell pellet suspended in 1 ml of fresh growth medium to which 5 μl (12.5 μg) of Fluo-4 AM (Molecular Probes, Inc., Grand Island, N.Y.) calcium indicator was added and incubated for 30 min with gentle shaking. Fluo-4 AM is a fluorescent dye used for quantifying cellular Ca^2+ concentrations in the 100 nM to 1 microM range. At the end of the 30 minutes, 45 ml of assay buffer [1×HBSS (Hank's Balanced Salt Solution), 20 mM HEPES (4-(2-Hydroxyethyl)-1-piperazineethanesulfonic acid)] was added to wash cells and the resulting combination was then centrifuged at 850 rpm for 3 minutes to remove excess buffer and Fluo-4 AM calcium indicator; following centrifugation the assay buffer was removed. The pellet cells were re-suspended in 10 ml assay buffer and 90 μl aliquots (˜50,000 cells) per well delivered to a 96-well assay plate containing compounds (final concentration 1 mM for pure compounds, 0.04% for extracts) or buffer control and incubated at room temperature for 30 minutes. After 30 minutes, the plate was placed into a fluorometric imaging plate reader (FLIPR^TETRA from Molecular Devices, Sunnyvale, Calif.) and basal fluorescence recorded (excitation wave length 488 nm and emission wave length 510 nm). The FLIPR assay is an accepted method for detecting changes in intracellular calcium concentration. […] For determining the direct effect of test compounds on TRPA1 receptor, fluorescence was measured immediately after addition of each compound.

Compound | Ca count CPC TRPV1 Receptor Antagonist [1] [count] | inhibition at 1000 µM [1] [%] | Ca count CPC TRPA1 Receptor Antagonist [3] [count] | also measured
Nc1ccccc1C(=O)Oc1ccc2ccccc2c1 [2-Aminobenzoic Acid Naphthalen-2-Yl Ester] | 4172 | 38.3 |  | 
CCCCCC=CC(=O)O [2-Octenoic Acid, Predominantly Trans, 2-Octenoic Acid] | 2878 | 78.3 |  | 
CCCCCC=CC(C)=O [3-Nonen-2-one] | 3470 | 43.6 |  | 
CC(=O)CCc1ccc(O)cc1 [4-(4-Hydroxy-phenyl)-butan-2-one] | 1127 | 67.8 |  | 
COc1ccc(CCC(C)=O)cc1 [4-(4-Methoxyphenyl)-2-butanone] | 1218 | 55.2 |  | 
CCCC(=O)OC(C)(C)Cc1ccccc1 [Alpha,Alpha-Dimethylphenethyl Butyrate] | 4246 | 45.2 |  | 
CCCCOC(=O)C(C)C [Butyl Isobutyrate] | 1504 | 57 |  | 
CCCCCCCCCCOC(C)=O [Decyl Acetate] | 2079 | 60.2 |  | 
CC(C)[C@@H]1CC[C@@H](C)C[C@H]1O [L-menthol] |  |  |  | cooling threshold [2]: about 800 ppb
O=S(=O)([O-])[O-].[Mg+2] [Magnesium sulfate] |  |  |  | % inhibition of CPC activation [1]: 88.1%
Cc1occc(=O)c1OC(=O)C(C)C [Maltyl Isobutyrate] |  |  | 2882 | % inhibition of CPC activation [3]: 46.3%
COC(=O)CCCc1ccccc1 [Methyl 4-Phenylbutyrate] | 3469 | 43.6 |  | 
CC1(C)C2CC=C(CO)C1C2 (centres unmarked) [Myrtenol] |  |  | 440 | % inhibition of CPC activation [3]: 86.04%; % inhibition of CPC activation ([3]; listed as myrtenol): 86%
CC1CCC(C(C)(C)S)C(=O)C1 (centres unmarked) [P-mentha-8-thiol-3-one] |  |  | 3513 | % inhibition of CPC activation [3]: 48.3%
CC(C)[C@@H]1CC[C@@H](C)C[C@@H]1O [Rinse 1-neomenthol, 1-neomenthol] |  |  |  | cooling threshold [2]: about 3,000 ppb
O=C(OC[C@H]1O[C@@H](OC(=O)c2cc(O)c(O)c(OC(=O)c3cc(O)c(O)c(O)c3)c2)[C@H](OC(=O)c2cc(O)c(O)c(OC(=O)c3cc(O)c(O)c(O)c3)c2)[C@@H](OC(=O)c2cc(O)c(O)c(OC(=O)c3cc(O)c(O)c(O)c3)c2)[C@@H]1OC(=O)c1cc(O)c(O)c(OC(=O)c2cc(O)c(O)c(O)c2)c1)c1cc(O)c(O)c(OC(=O)c2cc(O)c(O)c(O)c2)c1 [Tannic Acid] |  |  | 321 | inhibition at 1000 µM [3]: 95.3%
NCCc1ccc(O)cc1 [Uteramine] | 1093 | 68.8 |  | 
CC(=O)[O-].CC(=O)[O-].[Zn+2] [Zinc Acetate] | 1351 |  |  | % inhibition of CPC activation [1]: 89.8%
CC1=CCCC(C)(C)C1/C=C/C(C)O (stereo not drawn) [alpha-Ionol] | 2620 |  |  | % inhibition of CPC activation [1]: 66.2%
OC[C@H]1O[C@@H]2O[C@H]3[C@H](O)[C@@H](O)[C@@H](O[C@H]4[C@H](O)[C@@H](O)[C@@H](O[C@H]5[C@H](O)[C@@H](O)[C@@H](O[C@H]6[C@H](O)[C@@H](O)[C@@H](O[C@H]7[C@H](O)[C@@H](O)[C@@H](O[C@H]8[C@H](O)[C@@H](O)[C@@H](O[C@H]1[C@H](O)[C@H]2O)O[C@@H]8CO)O[C@@H]7CO)O[C@@H]6CO)O[C@@H]5CO)O[C@@H]4CO)O[C@@H]3CO [beta-Cyclodextrin] |  |  | 2324 | inhibition at 1000 µM [3]: 56.7%
CC1=C(/C=C/C(C)O)C(C)(C)CCC1 (stereo not drawn) [beta-Ionol] | 1265 |  |  | % inhibition of CPC activation [1]: 65.9%
CC(C)[C@@H]1CC[C@@H](C)C[C@@H]1O [d-neomenthol] |  |  |  | cooling threshold [2]: about 25,000 ppb
CCCOC(=O)c1cc(O)c(O)c(O)c1 [n-propyl gallate] |  |  | 1844 | inhibition at 1000 µM [3]: 65.6%
Manganese Citrate |  |  | 4553 | % inhibition of CPC activation [3]: 52.2%
Manganese Gluconate |  |  | 2234 | % inhibition of CPC activation [3]: 67.2%
